Experiments:
[1] = Pharmacokinetics of ceftolozane/tazobactam in healthy adults, single and multiple IV doses; conditions: for Cmax: mean (CV %); for Tmax: median (minimum, maximum)
Description: The intravenous formulation of CXA-201 can be prepared by reconstituting a fixed dose combination mixture of two active components (ceftolozane and tazobactam), and intravenously administering the reconstituted pharmaceutical composition. The pharmacokinetic (PK) profile of ceftolozane/tazobactam has been studied in several preclinical and clinical studies.
The pharmacokinetic (PK) profile of ceftolozane/tazobactam has been studied in several preclinical and clinical studies.

[2] = Population PK model of ceftolozane and tazobactam (healthy volunteers, renal impairment, cUTI/cIAI patients); conditions: for CLd, population estimate: intercompartmental clearance; for Vc (L)^d, population estimate: peripheral volume of distribution per footnote
Method: A population-PK analysis was performed on plasma ceftolozane and tazobactam concentration-time data from adult subjects enrolled in 10 studies. Subjects were included from multiple sites and all studies were performed in accordance with the International Conference on Harmonization guidelines on good clinical practice and the Declaration of Helsinki. An investigational review board approved the study protocols at each site.
Serum concentration data were analyzed from 5 studies in healthy volunteers (n=184), 3 studies in subjects with varying degrees of renal impairment (n=42), and 2 phase 2 studies in patients with bacterial infections (cUTIs [n=73] and cIAIs [n=77]). In all studies, ceftolozane was administered as a 1-hour intravenous infusion either alone or in combination with tazobactam at a fixed 2:1 ratio (ceftolozane:tazobactam). […] In the phase 2 trials, cUTI patients received ceftolozane alone 1000 mg (q8h) and cIAI patients received ceftolozane/tazobactam 1000/500 mg (q8h).
All subjects who received at least 1 dose of study medication and had at least 1 measurement of ceftolozane or tazobactam were included (N=376). Plasma concentrations of ceftolozane and tazobactam were determined by a validated liquid-chromatography-tandem mass spectrometry assay (MicroConstants, Inc., San Diego, Calif.) described previously. Concentrations below the limit of quantitation (BLQ), as defined previously, were considered as missing. No substitutions were made to account for these missing data points.
Base model development. The model was developed in 2 stages: a preliminary PK model was developed based on datasets from 3 studies. In the current analysis, the structural model was refined using the PK data from 10 studies (including patients with cUTI or cIAI) and the covariate analysis repeated. The results based on this revised model are presented here. A nonlinear mixed-effects model was developed with Phoenix® NLME™ software, version 1.2, 2012 (Certara L. P. Pharsight, St. Louis, Mo.) using first-order maximum likelihood estimation, and a 2-compartment structure model was fitted to the plasma concentration time data. The First Order Conditional Estimation-Extended Least Squares (FOCE-ELS) engine was used for model fitting. The software R (R Foundation for Statistical Computing, Vienna, Austria, 2013) was used to generate tables of post hoc PK parameters and descriptive statistics.
Sources of variability, that may affect drug exposure, were identified using correlation plots of individual random effects (ETA with mean 0 and estimated variance ? ^2) of parameters such as systemic clearance (CL) and central volume of distribution (Vc) versus covariates. Extrinsic covariates analyzed included dose levels, drug-drug interactions between ceftolozane and tazobactam, and disease status (bacterial infections). Intrinsic covariates analyzed included body weight, age, sex, ethnicity, and baseline calculated CrCL). […] Renal impairment was categorized as normal (CrCL≥90 mL/min), mild (CrCL≥50-<90 mL/min), moderate (CrCL≥30-<50 mL/min), and severe (CrCL≥15-<30 mL/min).
Scatter plots were used to examine the effect of continuous variables and box plots were used for categorical variables. […] Covariates were introduced in a multiplicative order using a power model standardized by the median for continuous covariates and a linear model with an exponentiated factor relative to the reference for categorical covariates.
Final population PK model: evaluation and performance. The final population-PK models for ceftolozane and tazobactam were evaluated using standard diagnostics, goodness-of-fit criteria, nonparametric bootstrap resampling, and visual predictive check (VPC).

With `C[C@]1(Cn2ccnn2)[C@H](C(=O)O)N2C(=O)C[C@H]2S1(=O)=O` [Tazobactam, tazobactam] the “excreted in the urine as the unchanged parent drug” value ([1]; healthy volunteers) was 80%, the half-life ([1]; human, in vivo, intravenous, terminal elimination half-life (t1/2β), healthy volunteers / normal renal function) was about 1 h and the AUC(0-t) ([1]; human, plasma, intravenous, 1.5 g) was 24400 ng·h/mL. For the same molecule, the Cmax ([1]; human, plasma, intravenous, 1.5 g, 1.5 g q8h 1-hour infusion, healthy adults, Day 1) was 18400 ng/mL, the Cmax ([1]; human, plasma, intravenous, 1.5 g, 1.5 g q8h 1-hour infusion, healthy adults, Day 10) was 18000 ng/mL and the half-life ([1]; human, plasma, intravenous, 1.5 g, t1/2, mean (CV %), 1.5 g q8h, healthy adults, Day 10) was 1.03 h. The Tmax ([1]; human, plasma, intravenous, 1.5 g, 1.5 g q8h, healthy adults, Day 1) was 1.02 h, the half-life ([1]; human, plasma, intravenous, terminal elimination half-life (t1/2β), healthy volunteers / normal renal function) was about 1 h and the “excreted in the urine as unchanged parent drug” value ([1]; single 1.5 g IV dose of CXA-201, healthy male adults) was “More than 80%”. For the same molecule, the “Exponent of the relationship between CLcr and CL” value ([2]; Table 31 model) was 0.67, the “Interindividual variability of CL, estimate” value ([2]; Table 31 model) was 50.2% and the “Interindividual variability of Vc, estimate” value ([2]; Table 31 model) was 52.5%. For the same molecule, the “Proportional shift in Vc for infected patients” value ([2]; Table 31 model) was 1.47, the “Vc, population estimate” value ([2]; Table 31 model) was 14.2 L and the “CLd, population estimate” value ([2]; Table 31 model) was 3.13 L/h. The “Vc (L)^d, population estimate” value ([2]; Table 31 model) was 4.29 L, the “power function of baseline CrCL on CL” value ([2]; [CrCL/115] exponent) was 0.67 and the “CL, population estimate” value ([2]; final model) was 18.0 L/h. The “between-subject variability (BSV) of CL” value ([2]; final model) was 50.2%, the “between-subject variability (BSV) of Vc” value ([2]; final model) was 52.5% and the “inter-compartment clearance (CL2), population PK” value ([2]; final model) was 3.13 L/h. For the same molecule, the “volume of distribution in the peripheral compartment (Vp), population PK” value ([2]; final model) was 4.29 L, the “CL, population estimate” value ([2]; previously-developed population PK model (Table 31)) was 18.0 L/h and the “Vc, population estimate” value ([2]; subjects without infection) was 14.2 L.
In the case of `Cn1c(N)c(NC(=O)NCCN)c[n+]1CC1=C(C(=O)O)N2C(=O)[C@@H](NC(=O)/C(=N\OC(C)(C)C(=O)O)c3nsc(N)n3)[C@H]2SC1` [Ceftolozane, (6R,7R)-3-[(5-amino-4-{[(2-aminoethyl)carbamoyl]amino}-1-methyl-1H-pyrazol-2-ium-2-yl)methyl]-7-({(2Z)-2-(5-amino-1,2,4-thiadiazol-3-yl)-2-[(1-carboxy-1-methylethoxy)imino]acetyl}amino)-8-oxo-5-thia-1-azabicyclo[4.2.0]oct-2-ene-2-carboxylate], the AUC(0-t) ([1]; human, in vivo) is reported as 172000 ng·h/mL, the CL renal ([1]; human, in vivo) is reported as 56.8 to 112 mL/min and the “Cmax, mean (CV %)” value ([1]; human, in vivo) is reported as 74.4 (14) μg/mL. The clearance ([1]; human, in vivo) was 68.3 to 112 mL/min, the “t1/2, mean (CV %)” value ([1]; human, in vivo) was 3.12 (22) h and the “tmax, median (minimum, maximum)” value ([1]; human, in vivo) was 1.07 (1.0, 1.1) h. The Cmax ([1]; human, in vivo) was 69100 ng/mL, the half-life ([1]; human, in vivo, t1/2, mean (CV %)) was 2.77 h and the half-life ([1]; human, in vivo, terminal elimination half-life (t1/2β)) was about 2.5 h. For the same molecule, the Tmax ([1]; human, in vivo) was 1.02 h, the “excreted in the urine as unchanged parent drug” value ([1]; male, human, in vivo, iv) was “greater than 95%” and the “Exponent of the relationship between CLcr and CL” value ([2]; Table 31 model) was 0.75. The “Exponent of the relationship between weight and CL” value ([2]; Table 31 model) was 0.76, the “Interindividual variability of CL, estimate” value ([2]; Table 31 model) was 34.3% and the “Interindividual variability of Vc, estimate” value ([2]; Table 31 model) was 34.0%. For the same molecule, the “Proportional shift in CL for infected patients” value ([2]; Table 31 model) was 1.26, the “Proportional shift in Vc for infected patients” value ([2]; Table 31 model) was 1.37 and the “Vc, population estimate” value ([2]; Table 31 model) was 11.8 L. The “CLd, population estimate” value ([2]; Table 31 model) was 0.884 L/h, the “Vc (L)^d, population estimate” value ([2]; Table 31 model) was 2.88 L and the “Vc, population PK” value ([2]; cIAI) was 18.2 L. For the same molecule, the “Vc, population PK” value ([2]; cUTI, at 74 kg body weight) was 13.8 L, the “between-subject variability (BSV) of CL” value ([2]; final model) was 33.0% and the “CL, population estimate” value ([2]; human) was 5.14 L/h. For the same molecule, the “inter-compartment clearance (CL2), population PK” value ([2]; human) was “about 1 L/h”, the “volume of distribution in the peripheral compartment (Vp), population PK” value ([2]; human) was “about 3 L” and the “CL higher than in healthy subjects” value ([2]; patients with cUTI and cIAI) was “about 20%”.
